In test [1] the test system is HIV-1RF-infected H9 cells. Description: Inhibition of HIV-induced syncytium formation (uninfected H9 cells with HIV-1RF-infected H9 cells). The test is classed as cell-based. Particulars: for IC100 of syncytium formation: H9 + HIV-1RF-infected H9 cells, 6 to 15 hours at 37° C. The procedure:
The purified enantiomers were taken up in DMSO at a concentration of 10 mg/mL. Dilutions were made in RPMI 1640 medium containing 10% fetal calf serum and 10 mM HEPES (cRPMI). H9 cells (ATCC, Rockville, Md.) infected with HIV-1RF (NIH AIDS Repository, Rockville, Md.) and uninfected H9 cells were washed with cRPMI and resuspended in cRPMI at a density of 4×10^6 per mL. Uninfected cells (50 μL) were mixed with serial dilutions of the compounds (100 μL) and incubated at 37° C. for 30 min before adding and mixing 50 μL of infected H9 cells. The plates were incubated at 37° C. for 6 to 15 hours before scoring syncytium formation.
For all the curves, the effect of ajoene enantiomers and enantiomer mixtures on the fusion of cultured, intact H9 cells with HIV-1RF-infected H9 cells is disclosed. The vertical graph axis expresses the maximum amount of syncytia formed in the absence of the compounds (100 percent), while the points on the curves represent percentages of such an amount of syncytia formed in the presence of varying concentrations of the compounds and compound mixtures (micromoles per liter).

For test [2], the system named is U937 cells infected with HIV-1 RT. Description: Inhibition of syncytium formation (MT2 cells with HIV-1 RT-infected U937 cells). Type of test: cell-based. Particulars: MT2 + HIV-1 RT-infected U937 cells, 13 hours.
Test [3] deals with T1, VLA-4 (Homo sapiens, UniProt P05556+P13612).
T1 construct: VLA-4-mediated adhesion of enzyme-labeled PM1 cells to VCAM-1-coated artificial substrata; host or cells: PM1 (printed 'PMI') cells
T1 sequence (P13612 34-1032): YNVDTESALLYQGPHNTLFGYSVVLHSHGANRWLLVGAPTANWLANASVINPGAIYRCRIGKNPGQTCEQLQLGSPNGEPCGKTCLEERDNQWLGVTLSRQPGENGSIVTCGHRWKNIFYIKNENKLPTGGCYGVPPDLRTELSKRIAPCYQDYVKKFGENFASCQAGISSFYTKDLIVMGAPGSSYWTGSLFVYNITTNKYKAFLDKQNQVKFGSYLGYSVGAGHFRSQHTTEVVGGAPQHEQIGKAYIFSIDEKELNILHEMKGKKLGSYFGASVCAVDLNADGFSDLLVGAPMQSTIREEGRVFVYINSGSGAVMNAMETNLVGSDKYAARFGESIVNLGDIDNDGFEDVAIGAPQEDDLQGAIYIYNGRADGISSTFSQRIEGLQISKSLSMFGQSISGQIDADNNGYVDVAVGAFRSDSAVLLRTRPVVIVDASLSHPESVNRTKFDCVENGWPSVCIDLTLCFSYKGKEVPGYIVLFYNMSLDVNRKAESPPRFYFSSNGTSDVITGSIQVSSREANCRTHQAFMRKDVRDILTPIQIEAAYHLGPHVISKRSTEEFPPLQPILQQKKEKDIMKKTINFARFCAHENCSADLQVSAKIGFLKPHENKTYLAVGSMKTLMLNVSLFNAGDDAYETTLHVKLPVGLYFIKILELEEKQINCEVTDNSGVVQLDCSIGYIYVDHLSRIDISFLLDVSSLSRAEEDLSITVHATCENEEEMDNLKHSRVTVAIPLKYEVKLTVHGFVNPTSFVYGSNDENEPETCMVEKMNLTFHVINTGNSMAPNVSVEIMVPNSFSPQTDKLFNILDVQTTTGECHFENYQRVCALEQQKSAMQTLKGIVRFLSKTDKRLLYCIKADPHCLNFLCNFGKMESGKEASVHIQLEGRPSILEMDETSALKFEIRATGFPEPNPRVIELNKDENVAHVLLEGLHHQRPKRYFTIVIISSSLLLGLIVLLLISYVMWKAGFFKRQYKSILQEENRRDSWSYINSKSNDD
T1 sequence (P05556 21-798): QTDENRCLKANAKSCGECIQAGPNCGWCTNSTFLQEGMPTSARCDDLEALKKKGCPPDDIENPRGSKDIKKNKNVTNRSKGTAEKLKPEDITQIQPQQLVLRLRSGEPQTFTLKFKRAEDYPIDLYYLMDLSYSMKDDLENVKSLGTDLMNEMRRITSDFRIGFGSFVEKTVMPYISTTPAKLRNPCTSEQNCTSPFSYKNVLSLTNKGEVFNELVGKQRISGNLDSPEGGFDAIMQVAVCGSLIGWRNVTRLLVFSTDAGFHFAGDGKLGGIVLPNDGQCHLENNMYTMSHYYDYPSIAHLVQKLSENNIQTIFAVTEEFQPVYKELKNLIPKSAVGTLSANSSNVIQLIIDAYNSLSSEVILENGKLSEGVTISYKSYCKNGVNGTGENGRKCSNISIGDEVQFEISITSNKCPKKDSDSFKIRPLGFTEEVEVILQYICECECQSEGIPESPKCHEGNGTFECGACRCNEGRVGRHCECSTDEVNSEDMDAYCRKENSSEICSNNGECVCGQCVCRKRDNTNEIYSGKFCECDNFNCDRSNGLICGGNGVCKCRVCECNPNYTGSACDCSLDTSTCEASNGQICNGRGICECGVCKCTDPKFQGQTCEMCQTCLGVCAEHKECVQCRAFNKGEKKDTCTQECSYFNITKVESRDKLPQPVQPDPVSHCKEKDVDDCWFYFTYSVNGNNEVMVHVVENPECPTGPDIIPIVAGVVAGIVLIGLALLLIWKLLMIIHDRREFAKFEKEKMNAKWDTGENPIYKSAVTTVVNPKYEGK
Description: Inhibition of VLA-4-mediated adhesion of HRP-labeled PMI cells to VCAM-1-coated substrata. The test is classed as cell-based. The procedure: In addition, the present invention provides methods whereby the integrin-modulating activity of DDCs may be assessed. One such method involves VLA-4-mediated adhesion of enzyme-labeled PM1 cells to VCAM-1-coated artificial substrata. Specifically, the cells are exposed to isolated DDC enantiomers (or the vehicle thereof) and allowed to adhere or not adhere to immobilized VCAM-1. Thereafter, the adherent cells are lysed and, following addition of the substrate of the enzyme and incubation, the activity of the enzyme is measured spectrophotometrically. The value of this parameter, characterizing the number of the adherent cells, is inversely proportional to integrin-modulating activity of the compound. Another such method is based on the inhibition of HIV-mediated syncytium formation, a phenomenon known to depend on integrin-mediated functions. Yet another method is based on the inhibition of cell-to-cell HIV transmission, a process also dependent on integrin-mediated functions. Modulating activity of integrin-mediated functions by the enantiomers was compared in a well-defined system of inhibition of VLA-4-mediated adhesion of enzyme-labeled PMI cells (NIH AIDS Repository, Rockville, Md.) to VCAM-1-coated artificial substrata. […] The reaction was stopped with 0.5 M H2SO4, and the optical density of the wells was read at 450 nm. […]

The target of test [4] is platelet integrin, GP IIb/IIIa (Homo sapiens, UniProt P05106+P08514). Particulars: allosteric inactivation of GP IIb/IIIa; cited from earlier work.
platelet integrin, GP IIb/IIIa, sequence (P08514 32-887 limits assumed): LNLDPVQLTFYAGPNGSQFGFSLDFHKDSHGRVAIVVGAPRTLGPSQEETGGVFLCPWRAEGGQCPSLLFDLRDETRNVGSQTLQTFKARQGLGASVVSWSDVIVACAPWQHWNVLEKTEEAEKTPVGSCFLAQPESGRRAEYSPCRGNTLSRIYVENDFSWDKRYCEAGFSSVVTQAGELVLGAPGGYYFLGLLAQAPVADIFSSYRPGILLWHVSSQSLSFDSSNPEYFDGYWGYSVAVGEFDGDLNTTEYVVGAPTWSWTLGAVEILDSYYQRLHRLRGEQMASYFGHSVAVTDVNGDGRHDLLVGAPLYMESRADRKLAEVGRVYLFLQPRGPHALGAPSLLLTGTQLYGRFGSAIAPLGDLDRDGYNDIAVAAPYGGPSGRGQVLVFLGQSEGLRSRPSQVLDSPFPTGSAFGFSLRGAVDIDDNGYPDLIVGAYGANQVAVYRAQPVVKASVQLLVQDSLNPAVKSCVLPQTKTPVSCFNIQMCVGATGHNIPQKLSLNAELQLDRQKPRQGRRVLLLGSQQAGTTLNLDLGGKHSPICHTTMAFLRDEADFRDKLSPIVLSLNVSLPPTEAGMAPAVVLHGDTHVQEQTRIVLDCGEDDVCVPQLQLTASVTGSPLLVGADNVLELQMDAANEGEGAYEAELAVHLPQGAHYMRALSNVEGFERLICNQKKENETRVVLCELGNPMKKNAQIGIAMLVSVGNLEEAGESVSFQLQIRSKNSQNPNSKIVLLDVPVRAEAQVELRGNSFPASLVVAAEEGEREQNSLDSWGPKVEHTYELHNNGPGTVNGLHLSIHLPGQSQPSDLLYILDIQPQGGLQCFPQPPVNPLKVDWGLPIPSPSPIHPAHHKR
platelet integrin, GP IIb/IIIa, sequence (P08514 891-1039 limits assumed): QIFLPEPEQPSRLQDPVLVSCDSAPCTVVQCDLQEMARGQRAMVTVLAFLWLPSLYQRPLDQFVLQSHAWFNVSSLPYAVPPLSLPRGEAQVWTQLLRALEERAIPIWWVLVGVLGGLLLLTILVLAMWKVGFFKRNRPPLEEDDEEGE
platelet integrin, GP IIb/IIIa, sequence (P05106 27-788): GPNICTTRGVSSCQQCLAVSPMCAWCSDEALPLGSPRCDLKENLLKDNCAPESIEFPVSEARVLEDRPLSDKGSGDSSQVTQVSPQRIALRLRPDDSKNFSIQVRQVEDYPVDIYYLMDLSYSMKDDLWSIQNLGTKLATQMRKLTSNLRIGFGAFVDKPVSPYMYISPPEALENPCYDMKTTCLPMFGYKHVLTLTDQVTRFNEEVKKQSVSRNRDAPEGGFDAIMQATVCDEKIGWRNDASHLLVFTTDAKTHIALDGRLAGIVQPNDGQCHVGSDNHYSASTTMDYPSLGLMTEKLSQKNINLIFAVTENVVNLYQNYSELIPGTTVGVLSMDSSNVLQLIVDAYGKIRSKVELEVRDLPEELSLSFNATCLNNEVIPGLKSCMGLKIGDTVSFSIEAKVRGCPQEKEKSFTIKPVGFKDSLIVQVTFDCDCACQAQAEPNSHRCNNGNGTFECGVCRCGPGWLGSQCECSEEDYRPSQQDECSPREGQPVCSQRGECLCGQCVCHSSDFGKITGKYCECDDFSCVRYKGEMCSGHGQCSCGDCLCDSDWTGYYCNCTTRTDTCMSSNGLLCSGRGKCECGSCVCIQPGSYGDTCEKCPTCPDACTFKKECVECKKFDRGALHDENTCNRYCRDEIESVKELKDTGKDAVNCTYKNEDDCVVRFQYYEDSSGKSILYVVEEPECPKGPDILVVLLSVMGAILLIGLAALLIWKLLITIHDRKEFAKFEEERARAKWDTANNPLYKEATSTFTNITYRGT
The subject of test [5] is adhesion-dependent processes. To be noted: mixtures of E- and Z-isomers; cited from earlier work.

SMILES strings stand for the structures.

Regarding `C=CCSS/C=C/C[S+]([O-])CC=C` (racemic) [racemic (E)-ajoene, reference compound], the “IC100 of syncytium formation” value in test [1] was found to be 50 micromoles per liter.

In the case of `C=CCSS/C=C\C[S+]([O-])CC=C` (stereo not drawn) [(Z)-(+) counterpart], the “IC100 of syncytium formation” value in test [1] was found to be 50 micromoles per liter.

With `C=CCSS/C=C\C[S+]([O-])CC=C` (stereo not drawn) [(Z)-(−)-enantiomer, (Z)-(−)-4,5,9-trithiadodeca-1,6,11-triene-9-oxide], in test [2], the “syncytium formation inhibition, result compared with the H9 system” value is recorded as “A similar result was obtained”. The “adhesion-inhibiting activity, fold higher than any other enantiomer of the original 3:1 mixture” value in test [3] (PMI cells on VCAM-1, optical density read at 450 nm) is 4 fold. The “activity compared with the parent racemates (E-, Z-ajoenes and mixtures)” value in test [3] (conclusion from Examples 2 and 3 taken together) is “significantly higher”. Further, in test [1], the “IC100 of syncytium formation” value is listed as 12.5 micromoles per liter. The “activity as an integrin modulator relative to other enantiomers, racemic E-ajoene or the unseparated 3:1 mixture” value in test [1] (summary statement in the description, covers Examples 2 and 3) is given as “at least four times more active”. Besides, in test [1] (syncytium formation, FIG. 1 curves), the “activity relative to (Z)-(+) counterpart, racemic (E)-ajoene or the unseparated 3:1 mixture” value was “at least four times more active”.

With `C=CCSS/C=C/C[S+]([O-])CC=C` (stereo not shown) [ajoene, 4,5,9-trithiadodeca-1,6,11-triene-9-oxide], the “effect on platelet aggregation” value in test [4] is reported as “inhibit platelet aggregation”. Further, in test [5], the “inhibition of adhesion-dependent processes” value is recorded as “potent inhibitor”.

The values above are taken from US20100099917A1, “Integrin modulators and methods for their use” (Billings Pharmaceuticals, Inc., priority 2004, published 2010).
